Source: publication PMC5466188 (Biotechnology Reports, 2014)

Molecular target: Acetylcholinesterase (AChE, from electric eel) (Electrophorus electricus, UniProt O42275)
Experiment: In vitro AChE inhibition assay
Format: biochemical

Acetylcholinesterase (AChE, from electric eel), sequence (O42275 24-633): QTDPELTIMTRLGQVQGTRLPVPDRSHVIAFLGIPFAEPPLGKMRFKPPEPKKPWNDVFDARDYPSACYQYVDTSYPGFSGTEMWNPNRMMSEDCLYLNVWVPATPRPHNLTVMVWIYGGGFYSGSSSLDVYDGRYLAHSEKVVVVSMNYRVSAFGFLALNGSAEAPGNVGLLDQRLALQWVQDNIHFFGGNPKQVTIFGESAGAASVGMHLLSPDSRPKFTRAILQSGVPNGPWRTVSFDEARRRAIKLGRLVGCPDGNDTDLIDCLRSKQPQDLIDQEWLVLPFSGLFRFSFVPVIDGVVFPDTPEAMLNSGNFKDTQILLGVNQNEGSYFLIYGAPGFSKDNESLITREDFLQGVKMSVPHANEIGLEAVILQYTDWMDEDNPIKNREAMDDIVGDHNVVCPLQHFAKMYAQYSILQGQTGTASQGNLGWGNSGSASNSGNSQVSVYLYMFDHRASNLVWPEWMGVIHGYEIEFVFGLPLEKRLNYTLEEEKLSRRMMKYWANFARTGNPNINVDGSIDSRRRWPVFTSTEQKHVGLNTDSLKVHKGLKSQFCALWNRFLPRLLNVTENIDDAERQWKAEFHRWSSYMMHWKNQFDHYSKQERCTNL

SMILES	IC50 [nM]
CC1=C(C(=O)NC(=O)c2cnccn2)C(c2ccccc2)NC(=O)N1 (stereo not drawn) [Compound 4a, 6-Methyl-2-oxo-4-phenyl-N-(pyrazin-2-ylcarbonyl)-1,2,3,4-tetrahydropyrimidine-5-carboxamide]	5350 ± 10
CC1=C(C(=O)NC(=O)c2cnccn2)C(c2ccccc2)NC(=S)N1 (stereo not drawn) [Compound 4b, 6-Methyl-4-phenyl-N-(pyrazin-2-ylcarbonyl)-2-thioxo-1,2,3,4-tetrahydropyrimidine-5-carboxamide]	5260 ± 10
CC1=C(C(=O)NC(=O)c2cnccn2)C(c2cccc([N+](=O)[O-])c2)NC(=O)N1 (stereo not drawn) [Compound 4c, 6-Methyl-4-(3-nitrophenyl)-2-oxo-N-(pyrazin-2-ylcarbonyl)-1,2,3,4-tetrahydropyrimidine-5-carboxamide]	2540 ± 10
CC1=C(C(=O)NC(=O)c2cnccn2)C(c2cccc([N+](=O)[O-])c2)NC(=S)N1 (stereo not drawn) [Compound 4d, 6-Methyl-4-(3-nitrophenyl)-N-(pyrazin-2-ylcarbonyl)-2-thioxo-1,2,3,4-tetrahydropyrimidine-5-carboxamide]	1820 ± 10
CC1=C(C(=O)NC(=O)c2cnccn2)C(c2cccc(Cl)c2)NC(=O)N1 (stereo not drawn) [Compound 4e, 4-(3-Chlorophenyl)-6-methyl-2-oxo-N-(pyrazin-2-ylcarbonyl)-1,2,3,4-tetrahydropyrimidine-5-carboxamide]	1210 ± 10
CC1=C(C(=O)NC(=O)c2cnccn2)C(c2cccc(Cl)c2)NC(=S)N1 (stereo not drawn) [Compound 4f, 4-(3-Chlorophenyl)-6-methyl-N-(pyrazin-2-ylcarbonyl)-2-thioxo-1,2,3,4-tetrahydropyrimidine-5-carboxamide]	1050 ± 10
CC1=C(C(=O)NC(=O)c2cnccn2)C(c2ccc(F)cc2)NC(=O)N1 (stereo not drawn) [Compound 4g, 4-(4-Fluorophenyl)-6-methyl-2-oxo-N-(pyrazin-2-ylcarbonyl)-1,2,3,4-tetrahydropyrimidine-5-carboxamide]	860 ± 10
CC1=C(C(=O)NC(=O)c2cnccn2)C(c2ccc(F)cc2)NC(=S)N1 (stereo not drawn) [Compound 4h, 4-(4-Fluorophenyl)-6-methyl-N-(pyrazin-2-ylcarbonyl)-2-thioxo-1,2,3,4-tetrahydropyrimidine-5-carboxamide]	750 ± 10
CC1=C(C(=O)NC(=O)c2cnccn2)C(c2ccc(Cl)cc2)NC(=O)N1 (stereo not drawn) [Compound 4i, 4-(4-Chlorophenyl)-6-methyl-2-oxo-N-(pyrazin-2-ylcarbonyl)-1,2,3,4-tetrahydropyrimidine-5-carboxamide]	940 ± 10
CC1=C(C(=O)NC(=O)c2cnccn2)C(c2ccc(Cl)cc2)NC(=S)N1 (stereo not drawn) [Compound 4j, 4-(4-Chlorophenyl)-6-methyl-N-(pyrazin-2-ylcarbonyl)-2-thioxo-1,2,3,4-tetrahydropyrimidine-5-carboxamide]	880 ± 10
CC1=C(C(=O)NC(=O)c2cnccn2)C(c2ccncc2)NC(=O)N1 (stereo not drawn) [Compound 4k, 6-Methyl-2-oxo-N-(pyrazin-2-ylcarbonyl)-4-(pyridin-4-yl)-1,2,3,4-tetrahydropyrimidine-5-carboxamide]	190 ± 10
CC1=C(C(=O)NC(=O)c2cnccn2)C(c2ccncc2)NC(=S)N1 (stereo not drawn) [Compound 4l, 6-Methyl-N-(pyrazin-2-ylcarbonyl) -4-(pyridin-4-yl) -2-thioxo-1,2,3,4-tetrahydropyrimidine-5-carboxamide]	110 ± 10
